Results reported in ChEMBL document CHEMBL1201862, “PubChem BioAssay data set” (2004).
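Tested at 5 concentrations; 48 h exposure; 96-well plates; endpoints linearly interpolated, else capped at highest concentration. Abbreviation: GI50, concentration required for 50% inhibition of growth.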 Active and inactive are the calls of the source. Cut-off read from the data, not from the text of the source: active = GI50 up to about 1.1 µM and inactive = higher.

Tests used:
Assay in all cases: NCI-60 cell line screen, 48 h
DLD-1 = tested on: DLD-1
DMS-114 = tested on: DMS-114
HOP-18 = tested on: HOP-18
KM-20L2 = tested on: KM-20L2
M19-MEL = tested on: M19-MEL
RXF 631 = tested on: RXF 631
SNB-78 = tested on: SNB-78
XF498 = tested on: XF498
BT-549 = tested on: BT-549

Measured: GI50

COc1ccc(/C=C/C(=O)c2sc(-c3cccnc3)nc2C)cc1
inactive: DLD-1 39.4 µM | DMS-114 26.7 µM | HOP-18 45.3 µM | KM-20L2 56.4 µM | M19-MEL 67.9 µM | RXF 631 54.3 µM | SNB-78 > 100 µM

COC(=O)C1=Cc2cc(OC)c(OC)c(OC)c2[C@H](c2cc(OC)c(OC)c(OC)c2)C1C(=O)OC (stereo partly drawn)
inactive: DLD-1 > 100 µM | DMS-114 > 100 µM | KM-20L2 > 100 µM | M19-MEL > 100 µM | RXF 631 > 100 µM | SNB-78 > 100 µM | XF498 > 100 µM

CC(C)c1ccccc1NC(=O)CCC(=O)NN
inactive: DLD-1 > 100 µM | KM-20L2 > 100 µM | M19-MEL > 100 µM | RXF 631 > 100 µM | SNB-78 > 100 µM | XF498 > 100 µM

Cc1cc2nc(O)c(CCC(=O)O)nc2cc1C
inactive: DLD-1 > 100 µM | DMS-114 35.6 µM | HOP-18 > 100 µM | KM-20L2 > 100 µM | M19-MEL > 100 µM | RXF 631 > 100 µM | SNB-78 > 100 µM | XF498 > 100 µM

CC(=O)O[C@@H]1CC(C)C2CC2C2=C(C(O)OC2O)[C@@H]1C(C)CCC=C(C)C (stereo partly drawn)
inactive: DLD-1 32.4 µM | DMS-114 23.2 µM | KM-20L2 18.7 µM | M19-MEL 22.8 µM | SNB-78 30.5 µM | XF498 19 µM

CCSc1nnc(-c2ccccc2)nc1Cc1ccc(OC)cc1
inactive: DLD-1 > 100 µM | HOP-18 > 100 µM | KM-20L2 > 100 µM | M19-MEL > 100 µM | SNB-78 78 µM | XF498 62.7 µM

CCN(CC)C(=O)CCn1ccc(=O)[nH]c1=O
inactive: DMS-114 > 100 µM | KM-20L2 > 100 µM | M19-MEL > 100 µM | SNB-78 > 100 µM | XF498 > 100 µM

CC(/C=C/NNC1=NN=C(c2ccccc2)C(c2ccccc2)N1)Sc1ccccc1N (stereo not drawn)
inactive: DLD-1 3.62 µM | KM-20L2 10.6 µM | M19-MEL 9.2 µM | RXF 631 13.1 µM | SNB-78 7.31 µM

CSc1sc(=S)sc1C(=O)N(C)c1ccccc1
inactive: DMS-114 > 100 µM | KM-20L2 > 100 µM | M19-MEL > 100 µM | SNB-78 > 100 µM | XF498 > 100 µM

CC12CC/C(=N/NC(N)=O)C3C1CCCC32
inactive: DLD-1 > 100 µM | DMS-114 > 100 µM | HOP-18 > 100 µM | KM-20L2 > 100 µM | M19-MEL > 100 µM | RXF 631 > 100 µM

O=C1NC(=S)NC(=O)C1=Cc1ccc2ccccc2n1
inactive: DLD-1 > 100 µM | DMS-114 > 100 µM | HOP-18 > 100 µM | KM-20L2 > 100 µM | M19-MEL > 100 µM | SNB-78 > 100 µM

O=C1C(c2ccccc2)=[N+]([O-])c2ccc(Cl)cc21
inactive: DLD-1 19 µM | DMS-114 12.8 µM | HOP-18 29.6 µM | KM-20L2 35.1 µM | M19-MEL 20.1 µM | RXF 631 32.7 µM | XF498 19 µM

NCCSc1cc(O)c2c(c1N)C(=O)c1ccccc1C2=O
inactive: DLD-1 30.3 µM | KM-20L2 5.51 µM | M19-MEL 24.3 µM | RXF 631 25.2 µM | SNB-78 32.1 µM | XF498 21.8 µM

COc1ccc([C@H]2CC3C(=O)N(c4ccc(OC)cc4)C(=O)C3c3[nH]c4ccccc4c32)cc1 (stereo partly drawn)
inactive: DLD-1 93.8 µM | DMS-114 87.9 µM | KM-20L2 69.5 µM | M19-MEL 71.4 µM | SNB-78 > 100 µM | XF498 32.7 µM

C1CN(P2(N3CC3)=NP(N3CC3)(N3CC3)=NP(N3CC3)(N3CC3)=N2)CCO1 (stereo not drawn) [FOTRETAMINE]
inactive: DLD-1 > 53.5 µM | DMS-114 80.7 µM | HOP-18 > 100 µM | KM-20L2 > 100 µM | M19-MEL > 100 µM | SNB-78 > 100 µM | XF498 > 100 µM

CCOC(=O)c1csc(CCCCCCc2nc(C(=O)OCC)cs2)n1
inactive: DLD-1 > 61.4 µM | HOP-18 75.5 µM | KM-20L2 > 100 µM | M19-MEL 21.9 µM | RXF 631 > 87.7 µM | SNB-78 45.3 µM | XF498 26.7 µM

COc1ccc(-c2cc(-c3cc(Cl)cc(Br)c3O)nc(O)n2)cc1
inactive: DLD-1 16.7 µM | DMS-114 14.1 µM | HOP-18 17.2 µM | KM-20L2 19.1 µM | M19-MEL 19.7 µM | SNB-78 18.7 µM

N#[N+][c-]1c(-c2ccccc2)n[nH]c1=O
inactive: DLD-1 > 100 µM | DMS-114 > 100 µM | KM-20L2 > 100 µM | M19-MEL > 100 µM | RXF 631 > 100 µM | XF498 > 100 µM

O=[N+]([O-])c1ccc(/N=N/c2c(O)ccc3cc(S(=O)(=O)O)ccc23)cc1
inactive: BT-549 > 100 µM

Cc1nnc(SCc2nc(C#N)c(C#N)nc2CSc2nnc(C)s2)s1
inactive: BT-549 16.2 µM

CCOC(=O)Nn1cnnc1C
inactive: BT-549 > 100 µM

c1ccc(/N=C2/SC(c3ccccc3)(c3ccccc3)c3ccccc32)cc1
inactive: BT-549 > 100 µM

CC(C)CCC[C@@H](C)C1CCC2[C@@H]3CC=C4C[C@@H](C(=O)NCC[N+](C)(C)CCCS(=O)(=O)[O-])CC[C@]4(C)C3CC[C@@]21C (stereo partly drawn)
inactive: DLD-1 22.4 µM | DMS-114 19.9 µM | HOP-18 17.7 µM | KM-20L2 16.4 µM | M19-MEL 17.1 µM | RXF 631 18.4 µM | SNB-78 18.8 µM

CC1CC2C3CCC4=CC(=O)C=CC4(C)C3(F)C(O)CC2(C)C1(O)C(=O)CO.Cc1nnc(NS(=O)(=O)c2ccc(/N=N/c3cc(/N=N/c4ccc(S(=O)(=O)Nc5nnc(C)s5)cc4)c4c(NC(=O)C(Cl)Cl)cccc4c3OC(=O)C(Cl)Cl)cc2)s1
inactive: DLD-1 16.1 µM | DMS-114 18.7 µM | KM-20L2 31.3 µM | M19-MEL 18.5 µM | RXF 631 34.6 µM | SNB-78 > 100 µM | XF498 25.8 µM

O=c1[nH]c(S)nc2c1sc(=S)n2-c1ccccc1
inactive: DLD-1 > 100 µM | DMS-114 > 100 µM | HOP-18 > 100 µM | KM-20L2 > 100 µM | M19-MEL > 100 µM | SNB-78 > 100 µM | XF498 > 100 µM

CC(=O)Nc1cc(Cl)cc(Cl)c1O
inactive: BT-549 > 100 µM

O=C(O)[C@H](NS(=O)(=O)c1ccc2ccccc2c1)c1ccccc1
inactive: DLD-1 > 100 µM | HOP-18 > 100 µM | KM-20L2 > 100 µM | M19-MEL > 100 µM | RXF 631 > 100 µM | XF498 99.3 µM

O=C1C(=C/C=C2/SC(c3ccccc3)(c3ccccc3)c3ccccc32)C(=O)c2ccccc21
inactive: BT-549 > 100 µM

CCOc1cc2c(cc1O)C=C[C@@H]1[C@@H]2CC[C@]2(C)[C@@H](O)CC[C@@H]12
inactive: BT-549 13.9 µM

CCOC(=O)c1c2ccccc2n2c(=O)n(-c3ccc(OC)cc3)nnc12
inactive: BT-549 26.5 µM

C[C@]12CC(c3ccccc3O1)C(C(=O)NC13CC4CC(CC(C4)C1)C3)C(=O)N2 (stereo partly drawn)
inactive: BT-549 28.1 µM

Cc1ccc2nc(NC(=O)C(=O)C(C#N)c3nc4ccccc4s3)sc2c1 (stereo not drawn)
inactive: DMS-114 24.8 µM | HOP-18 11.6 µM | KM-20L2 28 µM | M19-MEL 43.6 µM | RXF 631 44.7 µM | SNB-78 36.3 µM | XF498 28.8 µM

NC1=NS(=O)(=O)N=C(N)C1=Cc1ccc([N+](=O)[O-])o1
inactive: DLD-1 17.1 µM | DMS-114 17.7 µM | HOP-18 18 µM | KM-20L2 16.6 µM | M19-MEL 16.5 µM | SNB-78 19.6 µM | XF498 18.7 µM

CC1(C)Oc2ccccc2N2O[C@@H]3C(=O)N(c4ccccc4)C(=O)[C@@H]3C21c1ccccc1 (stereo partly drawn)
inactive: DLD-1 25.1 µM | DMS-114 23.2 µM | HOP-18 24.3 µM | KM-20L2 51.4 µM | M19-MEL 29 µM | SNB-78 35.5 µM
